Source: ChEMBL document CHEMBL2401685 (Bioorg Med Chem Lett, 2013)
Active and inactive are the calls of the source. The calls are words filed in the database; no cut-off is given here.

Assays:
[1] = molecular target: T1, 11-beta-hydroxysteroid dehydrogenase 1 (Homo sapiens, UniProt P28845); assay: Ratio of curcumin IC50 to compound IC50 for human 11beta-HSD1 transfected in CHOP cells; assay type: cell-based
Target sequence in this assay (P28845 whole entry, looked up): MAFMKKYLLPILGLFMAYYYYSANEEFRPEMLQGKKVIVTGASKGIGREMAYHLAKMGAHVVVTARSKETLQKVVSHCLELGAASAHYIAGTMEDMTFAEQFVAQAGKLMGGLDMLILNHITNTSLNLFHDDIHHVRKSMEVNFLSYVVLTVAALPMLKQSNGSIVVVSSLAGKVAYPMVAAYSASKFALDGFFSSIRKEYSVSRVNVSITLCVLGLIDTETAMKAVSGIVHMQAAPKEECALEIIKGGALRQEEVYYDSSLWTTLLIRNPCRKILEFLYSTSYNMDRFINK

[2] = molecular target: T2, 11-beta-hydroxysteroid dehydrogenase type 2 (Homo sapiens) (UniProt P80365); assay: (§1) Inhibition of 11beta-HSD2 in human kidney microsomes using [3H]-cortisol as substrate assessed as formation of cortisone at 100 uM after 30 mins by radiometric analysis relative to control; details: Microsome
T2 sequence (whole entry): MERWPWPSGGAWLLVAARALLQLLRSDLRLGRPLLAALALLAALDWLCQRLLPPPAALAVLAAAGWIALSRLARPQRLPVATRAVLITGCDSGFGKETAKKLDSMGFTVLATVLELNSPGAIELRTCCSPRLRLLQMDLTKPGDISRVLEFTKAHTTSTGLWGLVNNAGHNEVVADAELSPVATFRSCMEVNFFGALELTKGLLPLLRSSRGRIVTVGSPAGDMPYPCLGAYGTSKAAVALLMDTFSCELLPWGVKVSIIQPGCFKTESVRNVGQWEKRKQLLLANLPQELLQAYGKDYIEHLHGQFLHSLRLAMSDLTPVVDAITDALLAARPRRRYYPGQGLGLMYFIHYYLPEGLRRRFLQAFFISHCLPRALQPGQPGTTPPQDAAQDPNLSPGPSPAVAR

[3] = molecular target: T3, 11-beta-hydroxysteroid dehydrogenase type 2 (Rattus norvegicus) (UniProt P50233); assay: Inhibition of 11beta-HSD2 in rat kidney microsomes using [3H]-CORT as substrate assessed as formation of 11-DHC at 100 uM after 30 mins by radiometric analysis relative to control; details: Microsome
T3 sequence (whole entry): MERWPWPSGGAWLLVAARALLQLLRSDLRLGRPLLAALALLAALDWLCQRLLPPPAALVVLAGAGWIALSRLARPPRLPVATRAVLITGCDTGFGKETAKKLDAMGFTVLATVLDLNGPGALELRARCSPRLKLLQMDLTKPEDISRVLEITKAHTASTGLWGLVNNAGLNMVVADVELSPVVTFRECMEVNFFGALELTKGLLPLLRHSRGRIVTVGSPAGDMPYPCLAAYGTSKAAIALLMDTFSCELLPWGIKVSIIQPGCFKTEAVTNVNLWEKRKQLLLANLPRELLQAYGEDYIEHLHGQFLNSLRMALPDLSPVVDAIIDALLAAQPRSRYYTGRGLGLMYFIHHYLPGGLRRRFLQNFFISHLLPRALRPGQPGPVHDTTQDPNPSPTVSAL

[4] = molecular target: T1, 11-beta-hydroxysteroid dehydrogenase 1; assay: Inhibition of human 11beta-HSD1 transfected in CHOP cells; assay type: cell-based
Target sequence in this assay (P28845 whole entry): as the sequence (P28845 whole entry, looked up) above

[5] = molecular target: T1, 11-beta-hydroxysteroid dehydrogenase 1; assay: Inhibition of 11beta-HSD1 in human liver microsomes using [3H]-cortisone as substrate assessed as formation of cortisol after 60 to 90 mins by radiometric analysis; design: species or system Microsome
Target sequence in this assay (P28845 whole entry): as the sequence (P28845 whole entry, looked up) above

[6] = molecular target: T4, 11-beta-hydroxysteroid dehydrogenase 1 (Rattus norvegicus, UniProt P16232); assay: Inhibition of 11beta-HSD1 in Sprague-Dawley rat leydig cells […]
J774.A1 = assay: (§2) Antiinflammatory activity in mouse J774A1 cells assessed as LPS-induced TNFalpha production at 10 uM incubated 2 hrs prior to LPS challenge measured after 24 hrs by ELISA relative to vehicle-treated control; assay type: functional
[7] = molecular target: T4, 11-beta-hydroxysteroid dehydrogenase 1; assay: Inhibition of 11beta-HSD1 in rat testis microsomes using [3H]-11-DHC as substrate assessed as formation of CORT after 60 to 90 mins by radiometric analysis; design: species or system Microsome
[8] = molecular target: 11-beta-hydroxysteroid dehydrogenase 1 (Rattus norvegicus) (UniProt P16232); assay: Inhibition of 11beta-HSD1 in rat testis microsomes using [3H]-11-DHC as substrate assessed as formation of CORT at 100 uM after 60 to 90 mins by radiometric analysis relative to control; details: Microsome
[9] = molecular target: 11-beta-hydroxysteroid dehydrogenase 1 (Rattus norvegicus) (UniProt P16232); assay: Inhibition of 11beta-HSD1 in Sprague-Dawley rat leydig cells […] relative to control; details: 100 uM
[10] = molecular target: T1, 11-beta-hydroxysteroid dehydrogenase 1; assay: Inhibition of human 11beta-HSD1 transfected in CHOP cells at 100 uM relative to control; assay type: cell-based
Target sequence in this assay (P28845 whole entry, looked up): as the sequence (P28845 whole entry, looked up) above

[11] = molecular target: T1, 11-beta-hydroxysteroid dehydrogenase 1; assay: Inhibition of 11beta-HSD1 in human liver microsomes using [3H]-cortisone as substrate assessed as formation of cortisol at 100 uM after 60 to 90 mins by radiometric analysis relative to control; details: Microsome
Target sequence in this assay (P28845 whole entry, looked up): as the sequence (P28845 whole entry, looked up) above

[12] = as §2; assay type: functional; details: J774.A1
[13] = Cytotoxicity against CHOp cells; assay type: cell-based, Cricetulus griseus; details: chinese hamster
[14] = Cytotoxicity against rat leydig cells; assay type: cell-based
[15] = molecular target: T1, 11-beta-hydroxysteroid dehydrogenase 1; assay: Competitive inhibition of 11beta-HSD1 in human liver microsomes at 1 to 10 uM by Lineweaver-burk plot analysis in presence of cortisone; details: Microsome
Target sequence in this assay (P28845 whole entry, looked up): as the sequence (P28845 whole entry, looked up) above

[16] = molecular target: T5, 11-beta-hydroxysteroid dehydrogenase type 2 (Homo sapiens, UniProt P80365); assay: as §1; design: species or system Microsome
T5 sequence (P80365 whole entry): T2 sequence (whole entry)

T4 sequence (P16232 whole entry): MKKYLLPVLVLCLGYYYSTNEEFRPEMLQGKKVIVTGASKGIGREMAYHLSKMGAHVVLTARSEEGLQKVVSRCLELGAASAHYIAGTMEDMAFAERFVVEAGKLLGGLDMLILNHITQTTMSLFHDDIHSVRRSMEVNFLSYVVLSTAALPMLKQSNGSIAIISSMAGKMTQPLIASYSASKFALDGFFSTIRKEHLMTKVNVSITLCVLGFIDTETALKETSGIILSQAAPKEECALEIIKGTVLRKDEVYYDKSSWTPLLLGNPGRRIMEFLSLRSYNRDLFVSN
Chain of 11-beta-hydroxysteroid dehydrogenase 1 (Rattus norvegicus) (P16232 whole entry, looked up): as the sequence (P16232 whole entry) above

SMILES: O=C1/C(=C/c2ccc(F)cc2)CC/C1=C\c1ccc(F)cc1
- Ratio IC50 [1]: 9
- inhibition [2]: 26%
- inhibition [3]: 9%
- IC50 [4]: 310 nM
- IC50 [5]: 17400 nM
- IC50 [6]: 3470 nM
- inhibition (J774.A1): inactive
- IC50 [7]: 22000 nM

SMILES: CCOc1ccc(/C=C2\CC/C(=C\c3ccc(OCC)cc3)C2=O)cc1
- inhibition [8]: 0%
- inhibition [2]: 6%
- inhibition [3]: 10%
- inhibition [9]: 27%
- inhibition [10]: 14%
- inhibition [11]: 14%
- inhibition at 10 µM [12]: < 50%

SMILES: O=C1/C(=C/c2ccc(F)cc2)CCC/C1=C\c1ccc(F)cc1
- Ratio IC50 [1]: 9
- inhibition [2]: 24%
- inhibition [3]: 16%
- IC50 [4]: 263 nM
- IC50 [5]: 2970 nM
- IC50 [6]: 1110 nM
- inhibition (J774.A1): inactive
- IC50 [7]: 13500 nM

SMILES: O=C1/C(=C/c2ccccc2Br)CCC/C1=C\c1ccccc1Br
- Ratio IC50 [1]: 9
- Activity [13]: Non-toxic
- inhibition [2]: 33%
- inhibition [3]: 39%
- IC50 [4]: 346 nM
- IC50 [5]: 1110 nM
- IC50 [6]: 148 nM
- inhibition at 10 µM [12]: > 50%
- IC50 [7]: 218 nM
- Activity [14]: Non-toxic

SMILES: O=C(/C=C/c1ccccc1Br)/C=C/c1ccccc1Br
- inhibition [15]: Active
- Ratio IC50 [1]: 9
- Activity [13]: Non-toxic
- inhibition [2]: 53%
- inhibition [3]: 39%
- IC50 [4]: 115 nM
- IC50 [5]: 529 nM
- IC50 [6]: 129 nM
- inhibition at 10 µM [12]: > 50%
- IC50 [7]: 288 nM
- Activity [14]: Non-toxic

SMILES: O=C1/C(=C/c2cccc(Br)c2)CC/C1=C\c1cccc(Br)c1
- Ratio IC50 [1]: 9
- inhibition [2]: 23%
- inhibition [3]: 3%
- IC50 [4]: 97 nM
- IC50 [5]: 3510 nM
- IC50 [6]: 1150 nM
- IC50 [7]: 599 nM

SMILES: COc1cc(/C=C/C(=O)CC(=O)/C=C/c2ccc(O)c(OC)c2)ccc1O [CURCUMIN]
- IC50 [16]: 15700 nM
- IC50 [4]: 4500 nM
- IC50 [5]: 16000 nM
- IC50 [6]: 3920 nM
- inhibition (J774.A1): inactive
- IC50 [7]: 4120 nM
